Activity calls are given as the source filed them. The rule behind the calls is not given here. *1 amine or outer side, *2 acyl side, *3 side chain or, on linkers, in order; H or OH if unused. Where a SMILES comes first, the peptide text is derived from it. Bridges are numbered along the chain shown (N, C = ends). Roman numbers before positions name the chains, in order. [ ]: non-standard residue; d: D form. Actinocin(9to1) = Cc1c2oc3c(C)ccc(C(=O)[*:1])c3nc-2c(C(=O)[*:2])c(N)c1=O; NMeV = CN[C@H](C(=O)O)C(C)C; Sar = CNCC(=O)O
system: ADSC/ECFC co-culture, VEGF-stimulated, CD31 tube area; test: ADSC/ECFC co-culture angiogenesis inhibition – imaging, VEGF stimulation, CD31 staining, tube area, IC50, dose response (AID 1117337)

SMILES	IC50
CCOC(=O)c1ccccc1C(=O)OCC	> 10 µM (inactive)
CCN[C@@H](C)Cc1cccc(C(F)(F)F)c1	> 10 µM (inactive)
O=C1NCCN1CCN1CCC(c2cn(-c3ccc(F)cc3)c3ccc(Cl)cc23)CC1	> 10 µM (inactive)
O=C(CCBr)N1CCN(C(=O)CCBr)CC1	1.37 µM
COC(=O)CCCCC(CCSS/C(CCO)=C(\C)N(C=O)Cc1cnc(C)nc1N)SC(C)=O (configuration not stated)	> 10 µM (inactive)
O=C1c2c(O)cccc2Cc2cccc(O)c21	0.604 µM
C#C[C@]1(O)CC[C@H]2[C@@H]3CCc4cc(O)ccc4[C@H]3CC[C@@]21C	> 10 µM (inactive)
Oc1ccc(Cl)cc1Cc1cc(Cl)ccc1O	2.32 µM
Cc1ccc(C(=O)Oc2ccc(C(O)CNC(C)(C)C)cc2OC(=O)c2ccc(C)cc2)cc1 (configuration not stated)	> 10 µM (inactive)
COC(=O)C1=C(C)NC(C)=C(C(=O)OC(C)(C)CN(C)CCC(c2ccccc2)c2ccccc2)C1c1cccc([N+](=O)[O-])c1 (configuration not stated)	> 10 µM (inactive)
COCC(C)N(C(=O)CCl)c1c(C)csc1C (configuration not stated)	> 10 µM (inactive)
CN(C)/N=N/c1nc[nH]c1C(N)=O	4.59 µM
CCC=CCC=CCC=CCCCCCCCC(=O)O	> 10 µM (inactive)
O=c1[nH]sc2cc(Cl)ccc12	> 10 µM (inactive)
Cc1c2oc3c(C)ccc(C(=O)N[C@@H]4C(=O)N[C@H](C(C)C)C(=O)N5CCC[C@H]5C(=O)N(C)CC(=O)N(C)[C@@H](C(C)C)C(=O)O[C@@H]4C)c3nc-2c(C(=O)N[C@@H]2C(=O)N[C@H](C(C)C)C(=O)N3CCC[C@H]3C(=O)N(C)CC(=O)N(C)[C@@H](C(C)C)C(=O)O[C@@H]2C)c(N)c1=O (I: T[dV]P[Sar][NMeV] / II: T[dV]P[Sar][NMeV]; ester I:1-I:C, II:1-II:C; linker I:N-II:N via Actinocin(9to1))	0.001 µM
C=CCCCCCCCCC(=O)OC	> 10 µM (inactive)
CCc1oc2ccccc2c1C(=O)c1cc(I)c(O)c(I)c1	5.85 µM (inactive)
C[C@@]12C(=O)OC(=O)[C@]1(C)C1CCC2O1	1.23 µM
Cc1nc(Nc2ncc(C(=O)Nc3c(C)cccc3Cl)s2)cc(N2CCN(CCO)CC2)n1	> 10 µM (inactive)
Nc1ncn([C@@H]2O[C@H](CO)[C@@H](O)[C@H]2O)c(=O)n1	> 10 µM (inactive)
CC12CCC(CC1)C(C)(C)O2	> 10 µM (inactive)
COc1cc(S(N)(=O)=O)cc(C(=O)O)c1OC	> 10 µM (inactive)
O=C(CCN1CCC(c2ccccc2)C1)c1ccc2c(c1)OCCO2 (configuration not stated)	> 10 µM (inactive)
O=C1C(I)=CC(=C(c2cc(I)c(O)c(I)c2)c2ccccc2C(=O)O)C=C1I	> 10 µM (inactive)
CC1=C(/C=C/C(C)=C/C=C/C(C)=C/C(=O)Nc2ccc(O)cc2)C(C)(C)CCC1	1.34 µM

SMILES	IC50
O=NN(CCCl)C(=O)NC1CCCCC1	> 10 µM (inactive)
CCCCCCOC(=O)c1cccnc1	> 10 µM (inactive)
COCc1c(C(C)C)nc(C(C)C)c(/C=C/[C@@H](O)C[C@@H](O)CC(=O)O)c1-c1ccc(F)cc1	0.0894 µM
CC(=O)O[C@H]1C[C@H](O[C@H]2[C@@H](O)C[C@H](O[C@@H]3[C@@H](O)C[C@H](O[C@H]4CC[C@@]5(C)[C@H](CC[C@@H]6[C@H]5C[C@@H](O)[C@]5(C)[C@@H](C7=CC(=O)OC7)CC[C@]65O)C4)O[C@@H]3C)O[C@@H]2C)O[C@H](C)[C@H]1O[C@@H]1O[C@H](CO)[C@@H](O)[C@H](O)[C@@H]1O	0.0702 µM
Nc1nc(=O)n([C@@H]2O[C@H](CO)[C@@H](O)[C@@H]2F)cc1I	3.47 µM
CCCCCCCCCCCC[N+](C)(C)CCOc1ccccc1	3.38 µM
CSc1ccc2c(c1)N(CCC1CCCCN1C)c1ccccc1S2 (configuration not stated)	> 10 µM (inactive)
CCCCC1C(=O)N(c2ccccc2)N(c2ccc(O)cc2)C1=O (configuration not stated)	3.29 µM
Cc1c(N)cccc1C(F)(F)F	> 10 µM (inactive)
Cc1cccc(Nc2cc(Cl)nc(SCC(=O)O)n2)c1C	> 10 µM (inactive)
CCN1CCC[C@H]1CNC(=O)c1c(OC)ccc(Br)c1OC	> 10 µM (inactive)
O=C(Nc1ccc(S(=O)(=O)N2CCOCC2)cc1)c1cc(Cl)ccc1NS(=O)(=O)c1ccc(Cl)s1	> 10 µM (inactive)
Clc1ccc(CCC(Cn2ccnc2)Sc2c(Cl)cccc2Cl)cc1 (configuration not stated)	3.53 µM
O=C1NC2CCCCN2C12CCN(CCCN1c3ccccc3CCc3ccc(Cl)cc31)CC2 (configuration not stated)	> 10 µM (inactive)
CC(=O)Oc1ccc(C2(c3ccc(OC(C)=O)cc3)C(=O)Nc3ccccc32)cc1	> 10 µM (inactive)
Oc1c(I)cc(I)c2cccnc12	2.39 µM
CCCCCCCCCCCCCCCCCC[N+](C)(C)CCC[Si](OC)(OC)OC	> 10 µM (inactive)
CN1CCCC(CC2c3ccccc3Sc3ccccc32)C1 (configuration not stated)	8.68 µM (inactive)
Clc1cc(Cl)c(OCC#CI)cc1Cl	> 10 µM (inactive)
Oc1ccc2[nH]cc(CCCCN3CC=C(c4ccccc4)CC3)c2c1	4.04 µM
O=c1oc2c(O)c(O)cc3c(=O)oc4c(O)c(O)cc1c4c23	> 10 µM (inactive)
Cc1c(O)cc2c(c1C)O[C@](C)(CCC[C@H](C)CCC[C@H](C)CCCC(C)C)CC2	> 10 µM (inactive)
CNC(=O)Oc1cccc2ccccc12	> 10 µM (inactive)
COc1cccc(CCc2ccccc2OCC(CN(C)C)OC(=O)CCC(=O)O)c1 (configuration not stated)	> 10 µM (inactive)
CN(C)c1ccc(C(=C2C=CC(=[N+](C)C)C=C2)c2ccccc2)cc1	0.0605 µM

SMILES	IC50
Clc1ccc(C(Cn2ccnc2)OCc2ccc(Sc3ccccc3)cc2)c(Cl)c1 (configuration not stated)	> 10 µM (inactive)
CCCCCCCCCCCC[N+](C)(C)Cc1ccccc1	> 10 µM (inactive)
O=C(Nc1ccc(Cl)cc1)Nc1ccc(Cl)c(Cl)c1	> 10 µM (inactive)
O=[N+]([O-])c1cccc(S(=O)(=O)NCCNS(=O)(=O)c2cccc([N+](=O)[O-])c2)c1	> 10 µM (inactive)
COc1cccc2c1C(=O)c1c(O)c3c(c(O)c1C2=O)C[C@@](O)(C(=O)CO)CC3OC1CC(N2CCOC(OC)C2)C(O)C(C)O1 (some centres not stated)	0.003 µM
Clc1ccc(CSC(Cn2ccnc2)c2ccc(Cl)cc2Cl)cc1 (configuration not stated)	2.13 µM
CC(=O)NC(=O)c1ccccc1O	> 10 µM (inactive)
CCCCCCCCOc1ccccc1C(=O)Nc1ccc(C(=O)OCC[N+](C)(CC)CC)cc1	> 10 µM (inactive)
CC(C)(C)CC(C)(C)c1ccc(OCCOCC[N+](C)(C)Cc2ccccc2)cc1	3.74 µM
C=CC(C)(O)CCC=C(C)CCC=C(C)C (configuration not stated)	> 10 µM (inactive)
O=C(O)CCCc1ccc(N(CCCl)CCCl)cc1	1.24 µM
COc1ccc2c(c1)c1c3n2CCN(C)C3=NCC1	> 10 µM (inactive)
Oc1c(Br)cc(Br)c2cccnc12	> 10 µM (inactive)
CC1(C)[C@H](C=C(Cl)Cl)[C@@H]1C(=O)OCc1c(F)c(F)cc(F)c1F	> 10 µM (inactive)
N/C(=N\N=C\c1ccc(Cl)cc1)N/N=C/c1ccc(Cl)cc1	> 10 µM (inactive)
Cc1onc(-c2c(Cl)cccc2Cl)c1C(=O)Cl	> 10 µM (inactive)
COC(=O)C1=C(C)NC(C)=C(C(=O)O[C@@H]2CCCN(Cc3ccccc3)C2)[C@@H]1c1cccc([N+](=O)[O-])c1	> 10 µM (inactive)
O=[N+]([O-])c1ccc(Oc2ccc(N=C=S)cc2)cc1	3.72 µM
CC[C@H](C)C(=O)O[C@H]1C[C@@H](C)C=C2C=C[C@H](C)[C@H](CC[C@@H]3C[C@@H](O)CC(=O)O3)[C@H]21	3.27 µM
Cc1ccc([N+](=O)[O-])[c]2c1[O][Hg]2	0.668 µM
Oc1c(Cl)cc(Cl)cc1Sc1cc(Cl)cc(Cl)c1O	1.79 µM
Cc1cc(C(C#N)c2ccc(Cl)cc2)c(Cl)cc1NC(=O)c1cc(I)cc(I)c1O (configuration not stated)	> 10 µM (inactive)
CCOP(=S)(OCC)SCSc1ccc(Cl)cc1	> 10 µM (inactive)
CC(=O)N(CC(O)CN(C(C)=O)c1c(I)c(C(=O)NCC(O)CO)c(I)c(C(=O)NCC(O)CO)c1I)c1c(I)c(C(=O)NCC(O)CO)c(I)c(C(=O)NCC(O)CO)c1I (configuration not stated)	> 10 µM (inactive)
CC(C)c1c(C(=O)Nc2ccccc2)c(-c2ccccc2)c(-c2ccc(F)cc2)n1CC[C@@H](O)C[C@@H](O)CC(=O)O	> 10 µM (inactive)

SMILES	IC50
O=C(OCCO)c1ccccc1O	> 10 µM (inactive)
C[n+]1cc2c3c(ccc2c2ccc4cc5c(cc4c21)OCO5)OCO3	0.537 µM
CC(C)(C)CC(C)(C)c1ccc(O)cc1	> 10 µM (inactive)
CCCn1cnc2c1c(=O)n(CCCCC(C)=O)c(=O)n2C	> 10 µM (inactive)
CC[C@@]1(O)C(=O)OCc2c1cc1n(c2=O)Cc2c-1nc1ccccc1c2/C=N/OC(C)(C)C	0.002 µM
Cc1cccc(C)c1NC(=O)CC12CCCN1CCC2	> 10 µM (inactive)
COC(=O)C1=C(C)NC(C)=C(C(=O)OCCN2CCN(C(c3ccccc3)c3ccccc3)CC2)C1c1cccc([N+](=O)[O-])c1 (configuration not stated)	> 10 µM (inactive)
Cc1ccc2nc(N)[nH]c(=O)c2c1Sc1ccncc1	7.37 µM (inactive)
COC(=O)Nc1nc2ccc(C(=O)c3ccccc3)cc2[nH]1	0.37 µM
O=c1c(-c2ccccc2)c1-c1ccccc1	3.84 µM
CC[N+](CC)(CC)CCOc1ccc(/C=C/c2ccccc2)cc1	> 10 µM (inactive)
Cn1cc(S(C)=O)c(=O)c2ccc(F)cc21 (configuration not stated)	> 10 µM (inactive)
Oc1c(I)cc(Cl)c2cccnc12	> 10 µM (inactive)
O=C(O)c1ccc(-n2nc(-c3ccccc3O)nc2-c2ccccc2O)cc1	2.09 µM
O=S(c1cc(Cl)cc(Cl)c1O)c1cc(Cl)cc(Cl)c1O	> 10 µM (inactive)
COc1cc2nc(N3CCN(C(=O)C4COc5ccccc5O4)CC3)nc(N)c2cc1OC (configuration not stated)	> 10 µM (inactive)
C=CCN1CC[C@]23CCCC[C@H]2[C@H]1Cc1ccc(O)cc13	> 10 µM (inactive)
CC=CC1C(C(=O)OCc2c(F)c(F)c(COC)c(F)c2F)C1(C)C (configuration not stated)	> 10 µM (inactive)
CN1CCN(c2cc3c(nn2)Oc2ccccc2N3C)CC1	> 10 µM (inactive)
NC(=O)n1c(O)c(C(=O)c2cccs2)c2cc(Cl)ccc21	> 10 µM (inactive)
O=c1[nH]cc(F)c(=O)[nH]1	> 10 µM (inactive)
O=C(CCl)c1ccc(Cl)cc1Cl	2.49 µM

Reference: PubChem BioAssay AID1117337 (Cheminformatics & Chemogenomics Research Group (CCRG), …, 2015)
